Measured values as given in US8883739B2, “Osteocalcin as a treatment for male reproductive disorders” (The Trustees of Columbia University in the City of New York, priority 2010, dated 2014).
Blank lines part the entries; values can stand above or below the compound they belong to. Where no end group is shown, it is not given here.

Experiments:
GPCR6A = target: T1, GPCR6A (Mus musculus, UniProt Q8K4Z6); conditions: Christiansen et al., 2007; cited from earlier work
T1 sequence (Q8K4Z6 21-928): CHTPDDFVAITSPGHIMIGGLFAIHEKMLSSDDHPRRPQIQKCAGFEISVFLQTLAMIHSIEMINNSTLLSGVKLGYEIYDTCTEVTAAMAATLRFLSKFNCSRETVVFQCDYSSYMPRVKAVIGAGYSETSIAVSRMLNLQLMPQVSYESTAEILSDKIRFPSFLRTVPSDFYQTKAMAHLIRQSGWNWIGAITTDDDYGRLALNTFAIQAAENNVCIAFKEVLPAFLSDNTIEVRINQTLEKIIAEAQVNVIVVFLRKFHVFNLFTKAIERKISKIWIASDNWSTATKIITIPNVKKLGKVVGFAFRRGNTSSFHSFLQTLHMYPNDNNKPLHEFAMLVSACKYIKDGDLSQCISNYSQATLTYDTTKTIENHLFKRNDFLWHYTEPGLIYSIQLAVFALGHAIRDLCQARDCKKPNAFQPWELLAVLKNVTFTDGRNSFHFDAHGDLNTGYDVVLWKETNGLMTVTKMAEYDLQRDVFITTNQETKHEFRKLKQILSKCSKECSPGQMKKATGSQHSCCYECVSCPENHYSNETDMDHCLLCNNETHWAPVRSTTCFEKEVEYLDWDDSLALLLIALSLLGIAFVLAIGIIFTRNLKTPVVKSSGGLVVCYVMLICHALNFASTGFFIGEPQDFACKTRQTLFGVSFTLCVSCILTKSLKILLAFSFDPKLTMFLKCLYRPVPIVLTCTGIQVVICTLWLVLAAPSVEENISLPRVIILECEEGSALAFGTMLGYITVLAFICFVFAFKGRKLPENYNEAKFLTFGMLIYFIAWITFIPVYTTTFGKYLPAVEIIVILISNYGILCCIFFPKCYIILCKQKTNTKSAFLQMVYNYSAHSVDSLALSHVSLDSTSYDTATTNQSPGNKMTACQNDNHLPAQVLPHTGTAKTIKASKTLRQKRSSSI

GPRC6a = target: T2, GPRC6a (Mus musculus, UniProt Q8K4Z6); test: Receptor binding assay with biotinylated osteocalcin on testis sections
T2 construct: testes from 8-week old mice were snap frozen in liquid nitrogen and 20 μm thick sections were prepared; from tissue; host or cells: mouse testis sections (Leydig cells), 8-week old mice
T2 sequence (Q8K4Z6 21-928): T1 sequence (Q8K4Z6 21-928)
Experimental: For binding studies, testes from 8-week old mice were snap frozen in liquid nitrogen and 20 μm thick sections were prepared and dessicated overnight at +4° C. under vacuum. On the following day, sections were rehydrated in ice-cold binding buffer (50 mM TrisHCl, pH 7.4, 10 mM MgCl2, 0.1 mM EDTA and 0.1% BSA) for 15 minutes and incubated for 1 hour in the presence of biotinylated osteocalcin. […] After 3 washes in cold PBS, sections were incubated for 1 hour in the detection system containing 0.1% BSA (ABC Elite, Vector Laboratories), washed again, and incubated with DAB peroxidase substrate kit (Vector Laboratories) according to the manufacturer's protocol. After a final wash, sections were mounted in water-based mounting medium. As negative controls, sections incubated with the detection system only (ABC Elite and DAB) or OstR−/− testis sections (Basura et al., 2008, Hear. Res. 244:45-50) were used.

TM3 Leydig cells [1] = test: ERK1/2 phosphorylation Western blot of Leydig cells; format: cell-based, mouse
Experimental: (§1) Western blotting was performed according to standard procedures. Frozen testes were homogenized and lysed with 1×RIPA buffer. Membranes were blocked and then incubated overnight with primary antibody in TBST-5% BSA, followed by incubation with appropriate HRP-conjugated secondary antibody. Signals were visualized with ECL. The following primary antibodies were used: anti-phospho-tyrosin (9416), anti-pERK1/2 (4370), anti-ERK1/2 (9102), anti-pCREB (9198), anti-CREB (4820), anti-Cleaved Caspase-3 (Asp175) (9661) (all from Cell Signaling), and anti-tACE (H-300): sc-13973 and anti-CHD5 (H-185): sc-68390 from Santa Cruz; the anti-osteocalcin was described in Ferron et al., 2010, Biochem. Biophys. Res. Comm. 397:691-696.

primary Leydig cells [2] = test: Measurement of intracellular calcium in primary Leydig cells; format: cell-based, mouse
Experimental: Isolated primary Leydig cells were resuspended in buffer containing 95 mM NaCl, 4.8 mM KCl, 1.2 mM MgSO4, 1.2 mM KH2PO4, 5.6 mM glucose, 25 mM NaHCO3, 1.7 mM CaCl2, 0.25 mM sodium purivate, 1× PenStrep, 20 mM HEPES, 0.3% BSA, pH 7.4 at 37° C. (reagents from Sigma Aldrich, except for sodium pyruvate, PenStrep and HEPES from Invitrogen), plated at the density of 17-25000 cells/well on 96-well plate and placed in an incubator at 33° C., 5% CO2 for 2 hours. Afterward, the FLIPR dye (Calcium Plus Assay Kit Dye, Molecular Devices) diluted in the same buffer supplemented with 2.5 mM probenecid, pH 7.4 was exchanged for the previous medium and incubated with the cells for an additional 30-45 minutes. Following the incubation with the dye, cells were placed in a BD Pathway 855 High-Content Bioimager, recorded for 10-20 seconds to get baseline fluorescence, and then stimulated with doses of osteocalcin ranging from 0.3 to 500 ng/ml as well as control substances: medium, calcium ionophore A23187, 10% FBS, 400 μM Arginine^2+, 100 μM ATP/UTP mix and recorded for an additional 2-5 minutes. The probing time was varied between 1 and 5 seconds. Obtained images were analyzed for the change in fluorescence using ImageJ 1.41.

TM3 Leydig cells [3] = test: qPCR of steroidogenic genes in TM3 Leydig cells treated with osteocalcin; format: cell-based, mouse; conditions: osteocalcin 0.3 to 300 ng/ml, 2 hours
Experimental: TM3 cells were treated with increasing amounts of osteocalcin and assayed for the expression of genes encoding enzymes of the steroidogenic cascade. […] Thus, whether looked at by in vivo or cell-based assays, osteocalcin promotes testosterone biosynthesis.
Gene expression analyses were performed using real time PCR. DNAse I-treated total RNA was converted to cDNA with the SuperScript III kit (Invitrogen). Real-time PCR were performed using the Taq SYBR Green Supermix with ROX (Biorad) on an MX3000 instrument (Stratagene); beta-actin amplification was used as an internal reference for each sample. All primers were from SuperArray.
(§2) RNA was purified from tissues, primary Leydig cells, or cultured cells using TRIZOL® (Invitrogen). RNA isolation, cDNA preparation, and qPCR analysis was carried out following standard protocols. qPCR analyses were performed using specific quantitative PCR primers from SABiosciences.

primary Leydig cells [4] = test: Osteocalcin stimulation of primary Leydig cells, testosterone RIA; format: cell-based, mouse; conditions: increasing amounts of osteocalcin (0-100 ng/ml)
Experimental: (§3) Adult mouse Leydig cells were isolated by mechanical dissociation of the testes followed by purification on a 0-90% Percoll gradient (Hunter et al., 1982, Mol. Cell. Endocrinol. 25:35-47; Schumacher et al., 1978, FEBS Lett. 91:333-338). Primary Leydig cells were cultured in Minimal Essential Medium (MEM+GlutaMAX, Invitrogen) supplemented with 1× PenStrep, 25 mM HEPES, pH 7.4 and 0.07% BSA at 33° C. in 5% CO2. After 3 hours of attaching and starvation, cells were washed once with culture medium and then used for experiments. The preparation of testis explants was adapted from Powlin et al., 1998, Toxicol. Sci. 46:61-74. Explants were washed 3 times with PBS 1× and placed in serum free RPMI medium for 2 hours before being used for experiments.
(§4) After 1 hour, an aliquot of medium was collected for measurements of testosterone. Cells were then maintained for 3 additional hours and lysed in 1 ml TRIZOL® (Invitrogen) for RNA isolation.
(§5) Caudal epididymides were minced in 1 ml PBS and the number of cells released counted after 1 hour. The total sperm count was assessed in the final suspension by using a hemacytometer (Dakhova et al., 2009, Endocrinology 150:404-412). Circulating levels of testosterone, estradiol (E2), and progesterone were measured by radioimmunoassay (RIA) from Diagnostic Systems Laboratories (Testosterone RIA DSL-4000, Estradiol RIA DSL-43100, and Progesterone RIA-3900).

TM3 Leydig cells [5] = test: cAMP quantification in Leydig cells; format: cell-based, mouse; conditions: 30 minutes, 0.5 mM IBMX
Experimental: For cAMP measurements, TM3 Leydig cells were plated in 6 cm dishes (10^7 cells per dish) a day before experiment. Cells were serum starved for 16 hours (in the presence of 0.1% BSA) then pre-incubated in the presence of 0.5 mM IBMX for 30 minutes and stimulated with the indicated concentration of osteocalcin (also in the presence of 0.5 mM IBMX) for 30 minutes. cAMP concentration was measured with the Parameter cAMP kit (R&D Systems, KGE002).

TM3 Leydig cells [6] = test: Anti-phospho-tyrosine Western blot of Leydig cells; format: cell-based, mouse; conditions: 1 minute
Experimental: as §1

WT mice [7] = test: Circulating testosterone after osteocalcin injection in WT mice; format: in vivo, mouse; conditions: injection 3 ng/g of body weight, 1, 4 and 8 hours
Experimental: as §5

Leydig cells = test: CREB phosphorylation Western blot of Leydig cells; format: cell-based, mouse
Experimental: as §1

testis explants = test: Osteocalcin stimulation of testis explants, testosterone RIA; format: cell-based, mouse; conditions: increasing amounts of osteocalcin (0-100 ng/ml)
Experimental: as §3, §4, §5

Leydig cell cultures = test: Expression of testosterone biosynthesis enzymes in Leydig cell cultures treated with uncarboxylated osteocalcin; format: cell-based, mouse; conditions: qPCR
Experimental: as §3, §4, §2

WT mice [8] = test: Daily osteocalcin injections in WT mice for 12 weeks; format: in vivo, mouse
Experimental: WT mice (n=6) were injected daily with either 3 ng/g or 30 ng/g of uncarboxylated osteocalcin for 12 weeks. […] Likewise, serum testosterone levels were increased in osteocalcin-injected mice compared to vehicle-injected mice (FIG. 7D).
as §5
One testis or ovary from each mouse was randomly selected for molecular analysis and the other one was used for histology. Specimens were collected, weighed, and fixed in Bouin's fixative for histological analyses before being dehydrated through graded ethanol, processed for paraffin embedding, and serially sectioned at 5 μm. For histological analysis, sections of testes and ovaries were stained with periodic acid-Schiff and counterstained with hematoxylin. TUNEL labeling was performed using the ApopTag Peroxydase In Situ Apoptosis detection kit (Millipore-57100). Apoptotic indices were determined by counting the total number of TUNEL-positive cells or the number of TUNEL positive spermatocytes for all stage tubules. Approximately 500 tubules were counted on at least 4 cross-sections located at midtestis for each animal.

[9] = WT mice, 3 ng/g or 30 ng/g daily for 12 weeks, both doses

Compound: N=C(N)NCCC[C@H](N)C(=O)O [arginine]
activation of GPCR6A (GPCR6A): activate

Compound: NCCCC[C@H](N)C(=O)O [lysine]
activation of GPCR6A (GPCR6A): activate

Compound: NCCC[C@H](N)C(=O)O [ornithine]
activation of GPCR6A (GPCR6A): activate

binding to GPRC6a-deficient testes (GPRC6a; GPRC6a-deficient testis sections): no binding was detected
binding to Leydig cells (GPRC6a; WT mouse testis sections): bound
Compound: biotinylated osteocalcin: biotinylated osteocalcin used as a ligand in binding assays on mouse testes (YLGASVPSPDPLEPTREQCELNPACDELSDQYGLKTAYKRIYGITI; ends and bridges not checked; also: biotinylated, site not given here)

competition of osteocalcin binding (GPRC6a; excess (100 fold) of unlabeled competitor, WT testis sections): competed away
Compound: uncarboxylated osteocalcin: Recombinant osteocalcin bacterially produced as GST fusion, cleaved with thrombin; completely undercarboxylated at all three sites (YLGASVPSPDPLEPTREQCELNPACDELSDQYGLKTAYKRIYGITI)
ERK activation (ERK1/2 phosphorylation) (TM3 Leydig cells [1]; listed as Osteocalcin): did not induce
ERK activation (ERK1/2 phosphorylation) (TM3 Leydig cells [1]; listed as osteocalcin): absence of ERK1/2 phosphorylation
intracellular calcium accumulation (primary Leydig cells [2]): did not induce
expression of StAR, Cyp11a and Cyp17 (TM3 Leydig cells [3]): specifically increased
testosterone secretion (primary Leydig cells [4]): dose-dependent increase
cAMP production (TM3 Leydig cells [5]; listed as Osteocalcin): consistently induced
cAMP production (TM3 Leydig cells [5]; listed as osteocalcin): increased
tyrosine phosphorylation (TM3 Leydig cells [6]; listed as Osteocalcin): did not induce
tyrosine phosphorylation (TM3 Leydig cells [6]; listed as osteocalcin): not in osteocalcin treated cells
circulating levels of testosterone (WT mice [7]): increased
CREB phosphorylation (Leydig cells): favors
testosterone secretion (testis explants): dose-dependent increase
expression of StAR, Cyp11a, Cyp17 and 3β-HSD (Leydig cell cultures): increased
serum testosterone levels (WT mice [8]; WT mice injected daily, compared to vehicle-injected mice): increased
sperm cell apoptosis (WT mice [8]; [9]): decreased
sperm count (WT mice [8]; [9]): significantly increased
testis weight (WT mice [8]; [9]): significantly increased
